Reference: PubChem BioAssay (NCI)
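Five compound concentrations were applied to cells in 96-well plates for 48 hours; endpoints were derived by simple linear interpolation of the resulting dose-response curve. TGI is the concentration that stops growth completely.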

Columns and labels:
Test in all cases: NCI tumour cell line growth inhibition, 48 h
HOP-18 NSCLC = tested on: HOP-18 NSCLC
M19-MEL melanoma = tested on: M19-MEL melanoma
SK-MEL-28 melanoma = tested on: SK-MEL-28 melanoma
MCF7 breast = tested on: MCF7 breast
OVCAR-3 ovarian = tested on: OVCAR-3 ovarian
HCT-15 colon = tested on: HCT-15 colon
HOP-92 NSCLC = tested on: HOP-92 NSCLC
A549 NSCLC = tested on: A549 NSCLC
HL-60(TB) leukemia = tested on: HL-60(TB) leukemia
SK-MEL-5 melanoma = tested on: SK-MEL-5 melanoma
UACC-62 melanoma = tested on: UACC-62 melanoma
UO-31 renal = tested on: UO-31 renal
P388 leukemia = tested on: P388 leukemia
NCI-H460 lung = tested on: NCI-H460 lung
SNB-19 CNS = tested on: SNB-19 CNS
DLD-1 colon = tested on: DLD-1 colon
DMS 273 small cell lung = tested on: DMS 273 small cell lung
CAKI-1 renal = tested on: CAKI-1 renal
HCC-2998 colon = tested on: HCC-2998 colon
NCI-H23 lung = tested on: NCI-H23 lung
SN12C renal = tested on: SN12C renal
P388/ADR leukemia = tested on: P388/ADR leukemia
SN12K1 renal = tested on: SN12K1 renal
U251 CNS = tested on: U251 CNS
MOLT-4 leukemia = tested on: MOLT-4 leukemia
HOP-62 NSCLC = tested on: HOP-62 NSCLC
DMS 114 small cell lung = tested on: DMS 114 small cell lung
COLO 205 colon = tested on: COLO 205 colon
RXF 393 renal = tested on: RXF 393 renal
RPMI-8226 leukemia = tested on: RPMI-8226 leukemia
OVCAR-8 ovarian = tested on: OVCAR-8 ovarian
HT29 colon = tested on: HT29 colon
OVCAR-4 ovarian = tested on: OVCAR-4 ovarian
A498 renal = tested on: A498 renal
NCI-H226 lung = tested on: NCI-H226 lung
SW-620 colon = tested on: SW-620 colon
SK-OV-3 ovarian = tested on: SK-OV-3 ovarian
KM20L2 colon = tested on: KM20L2 colon
MALME-3M melanoma = tested on: MALME-3M melanoma
K-562 leukemia = tested on: K-562 leukemia
NCI/ADR-RES ovarian = tested on: NCI/ADR-RES ovarian
SF-539 CNS = tested on: SF-539 CNS
SK-MEL-2 melanoma = tested on: SK-MEL-2 melanoma
SNB-75 CNS = tested on: SNB-75 CNS
HCT-116 colon = tested on: HCT-116 colon
KM12 colon = tested on: KM12 colon
NCI-H522 lung = tested on: NCI-H522 lung
UACC-257 melanoma = tested on: UACC-257 melanoma
CCRF-CEM leukemia = tested on: CCRF-CEM leukemia
LOX IMVI melanoma = tested on: LOX IMVI melanoma
SNB-78 CNS = tested on: SNB-78 CNS
OVCAR-5 ovarian = tested on: OVCAR-5 ovarian
SF-295 CNS = tested on: SF-295 CNS
EKVX NSCLC = tested on: EKVX NSCLC
IGROV1 ovarian = tested on: IGROV1 ovarian
SF-268 CNS = tested on: SF-268 CNS
XF 498 CNS = tested on: XF 498 CNS

Compound Cc1c2cnccc2c(C)c2c1c1ccccc1n2CC1CO1 (stereo not given) has a TGI (HOP-18 NSCLC) of 6.56 µM, a TGI (M19-MEL melanoma) of 2.94 µM and a TGI (SK-MEL-28 melanoma) of 4.03 µM. The TGI (MCF7 breast) was 2.91 µM, the TGI (OVCAR-3 ovarian) was 3.76 µM and the TGI (HCT-15 colon) was 4.56 µM. It also gave a TGI (HOP-92 NSCLC) of 4.31 µM, a TGI (A549 NSCLC) of 4.85 µM and a TGI (HL-60(TB) leukemia) of 0.597 µM. It also gave a TGI (SK-MEL-5 melanoma) of 2.23 µM, a TGI (UACC-62 melanoma) of 8.19 µM and a TGI (UO-31 renal) of 3.02 µM. It also gave a TGI (P388 leukemia) of 1.26 µM, a TGI (NCI-H460 lung) of 2.52 µM and a TGI (SNB-19 CNS) of 5.59 µM. For the same compound, the TGI (DLD-1 colon) was 4.58 µM, the TGI (DMS 273 small cell lung) was 2.43 µM and the TGI (CAKI-1 renal) was 4.87 µM. For the same compound, the TGI (HCC-2998 colon) was 4.4 µM, the TGI (NCI-H23 lung) was 8.4 µM and the TGI (SN12C renal) was 1.31 µM. For the same compound, the TGI (P388/ADR leukemia) was 1.61 µM, the TGI (SN12K1 renal) was 2.2 µM and the TGI (U251 CNS) was 9.1 µM. It also gave a TGI (MOLT-4 leukemia) of 0.328 µM, a TGI (HOP-62 NSCLC) of 3.34 µM and a TGI (DMS 114 small cell lung) of 2.43 µM. It also gave a TGI (COLO 205 colon) of 2.87 µM, a TGI (RXF 393 renal) of 1.92 µM and a TGI (RPMI-8226 leukemia) of 7.6 µM. For the same compound, the TGI (OVCAR-8 ovarian) was 2.8 µM, the TGI (HT29 colon) was 4.82 µM and the TGI (OVCAR-4 ovarian) was 5.46 µM. It also gave a TGI (A498 renal) of 0.581 µM, a TGI (NCI-H226 lung) of 5.54 µM and a TGI (SW-620 colon) of 2.8 µM. The TGI (SK-OV-3 ovarian) was 6.93 µM, the TGI (KM20L2 colon) was 4.62 µM and the TGI (MALME-3M melanoma) was 3.44 µM. The TGI (K-562 leukemia) was 3.24 µM, the TGI (NCI/ADR-RES ovarian) was 3.57 µM and the TGI (SF-539 CNS) was 2.52 µM. The TGI (SK-MEL-2 melanoma) was 3.44 µM, the TGI (SNB-75 CNS) was 0.861 µM and the TGI (HCT-116 colon) was 5.07 µM. It also gave a TGI (KM12 colon) of 10.9 µM, a TGI (NCI-H522 lung) of 3.29 µM and a TGI (UACC-257 melanoma) of 3.51 µM. For the same compound, the TGI (CCRF-CEM leukemia) was 1.28 µM, the TGI (LOX IMVI melanoma) was 2.74 µM and the TGI (SNB-78 CNS) was 5.14 µM. For the same compound, the TGI (OVCAR-5 ovarian) was 5.54 µM, the TGI (SF-295 CNS) was 3.2 µM and the TGI (EKVX NSCLC) was 2.08 µM. For the same compound, the TGI (IGROV1 ovarian) was 5.99 µM and the TGI (SF-268 CNS) was 2.09 µM.
With CSc1nc(SC)c2cnn(CC3CO3)c2n1 (stereo not given) the TGI (HOP-18 NSCLC) was over 100 µM, the TGI (M19-MEL melanoma) was 27.1 µM and the TGI (SK-MEL-28 melanoma) was 18.6 µM. The TGI (MCF7 breast) was 25.7 µM, the TGI (OVCAR-3 ovarian) was over 65.1 µM and the TGI (HCT-15 colon) was over 61.4 µM. For the same compound, the TGI (A549 NSCLC) was 64.8 µM, the TGI (HL-60(TB) leukemia) was 45.4 µM and the TGI (SK-MEL-5 melanoma) was 17.8 µM. For the same compound, the TGI (UACC-62 melanoma) was 33.5 µM, the TGI (UO-31 renal) was 45 µM and the TGI (P388 leukemia) was over 54.5 µM. The TGI (NCI-H460 lung) was 40.8 µM, the TGI (SNB-19 CNS) was over 100 µM and the TGI (DLD-1 colon) was 53.9 µM. For the same compound, the TGI (DMS 273 small cell lung) was over 54.6 µM, the TGI (XF 498 CNS) was 45.4 µM and the TGI (HCC-2998 colon) was 31.3 µM. The TGI (NCI-H23 lung) was 34.6 µM, the TGI (SN12C renal) was over 50.1 µM and the TGI (P388/ADR leukemia) was over 57 µM. The TGI (SN12K1 renal) was 21.6 µM, the TGI (U251 CNS) was 45.4 µM and the TGI (MOLT-4 leukemia) was 7.73 µM. The TGI (HOP-62 NSCLC) was 41.2 µM, the TGI (DMS 114 small cell lung) was 32.6 µM and the TGI (COLO 205 colon) was 35.5 µM. The TGI (RXF 393 renal) was 34 µM, the TGI (RPMI-8226 leukemia) was over 100 µM and the TGI (OVCAR-8 ovarian) was 15.8 µM. The TGI (HT29 colon) was 47.1 µM, the TGI (OVCAR-4 ovarian) was 44.2 µM and the TGI (A498 renal) was over 100 µM. It also gave a TGI (NCI-H226 lung) of 38.7 µM, a TGI (SW-620 colon) of over 44.7 µM and a TGI (SK-OV-3 ovarian) of over 100 µM. It also gave a TGI (KM20L2 colon) of 43.4 µM, a TGI (MALME-3M melanoma) of 45.2 µM and a TGI (K-562 leukemia) of over 100 µM. The TGI (NCI/ADR-RES ovarian) was 36.3 µM, the TGI (SF-539 CNS) was 38.5 µM and the TGI (SK-MEL-2 melanoma) was 31.7 µM. The TGI (SNB-75 CNS) was 44.7 µM, the TGI (HCT-116 colon) was 31.9 µM and the TGI (KM12 colon) was 39.2 µM. It also gave a TGI (NCI-H522 lung) of 77.3 µM, a TGI (UACC-257 melanoma) of 37.4 µM and a TGI (CCRF-CEM leukemia) of 70.5 µM. It also gave a TGI (LOX IMVI melanoma) of 19.8 µM, a TGI (OVCAR-5 ovarian) of 41.3 µM and a TGI (SF-295 CNS) of 55.4 µM. For the same compound, the TGI (EKVX NSCLC) was over 75.4 µM, the TGI (IGROV1 ovarian) was 38.1 µM and the TGI (SF-268 CNS) was 33.9 µM.
